Assay results reported in paper PMC12250763, “Synergistic and Antagonistic Mechanisms of Arctium lappa L. Polyphenols on Human Neutrophil Elastase Inhibition: Insights from Molecular Docking and Enzymatic Kinetics” (Molecules, 2025).

Target: T1, human neutrophil elastase (HNE) (Homo sapiens, UniProt P08246)
T1 construct: gene ELANE
T1 sequence (P08246 30-247): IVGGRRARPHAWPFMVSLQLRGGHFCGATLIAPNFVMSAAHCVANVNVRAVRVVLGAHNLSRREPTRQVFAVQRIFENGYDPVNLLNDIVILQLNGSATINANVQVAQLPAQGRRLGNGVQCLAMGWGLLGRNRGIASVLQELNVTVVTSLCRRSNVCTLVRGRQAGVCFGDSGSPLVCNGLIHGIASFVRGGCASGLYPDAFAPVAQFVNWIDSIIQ
Test: chromogenic elastase assay (MeOSuc-AAPV-pNA, […] nm), dose-response
Type: biochemical

SMILES	IC50 [µM]
O=C(/C=C/c1ccc(O)c(O)c1)O[C@@H]1C[C@](O)(C(=O)O)C[C@@H](O)[C@H]1O [Cha, chlorogenic acid]	203
O=C(/C=C/c1ccc(O)c(O)c1)O[C@@H]1C[C@](O)(C(=O)O)C[C@@H](OC(=O)/C=C/c2ccc(O)c(O)c2)[C@H]1O [Iso A, isochlorogenic acid A]	171
